In article PMC11427300, “Cryptic enzymatic assembly of peptides armed with β-lactone warheads” (Nature Chemical Biology, 2024):

Key:
Type in all cases: biochemical
CysF [1] = biological target: T1, CysF (Kitasatospora cystarginea, UniProt A0A1W6R555); assay: LC-MS, hydroxylamine trapping as hydroxamic acid […]; conditions: ATP, adenylation only, no lactone formed
T1 construct: C-terminal His tag (pET21-a(+)), E. coli; 8RA0 is the apo structure, residues 1-491 mentioned
T1 sequence (A0A1W6R555 1-491): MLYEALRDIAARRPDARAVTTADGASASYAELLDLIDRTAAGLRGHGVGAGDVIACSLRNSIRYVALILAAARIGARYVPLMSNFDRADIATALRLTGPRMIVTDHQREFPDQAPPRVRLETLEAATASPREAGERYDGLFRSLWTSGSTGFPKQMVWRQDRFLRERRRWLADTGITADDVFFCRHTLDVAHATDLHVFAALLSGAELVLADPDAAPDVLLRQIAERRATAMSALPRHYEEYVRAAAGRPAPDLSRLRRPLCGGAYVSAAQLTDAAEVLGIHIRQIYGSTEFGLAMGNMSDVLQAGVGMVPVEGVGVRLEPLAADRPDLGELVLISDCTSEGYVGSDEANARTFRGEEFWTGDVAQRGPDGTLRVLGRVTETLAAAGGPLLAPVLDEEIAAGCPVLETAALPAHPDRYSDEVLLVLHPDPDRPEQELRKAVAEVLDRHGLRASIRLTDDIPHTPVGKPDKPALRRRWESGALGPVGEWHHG

CysG = biological target: T2, CysG (Kitasatospora cystarginea, UniProt A0A1W6R556); assay: LC-MS and NMR product analysis; conditions: MgCl2, phosphate pH 7.8, 25 °C
T2 construct: C-terminal His tag (pET28-a(+)), E. coli BL21(DE3)
T2 sequence (A0A1W6R556 1-228): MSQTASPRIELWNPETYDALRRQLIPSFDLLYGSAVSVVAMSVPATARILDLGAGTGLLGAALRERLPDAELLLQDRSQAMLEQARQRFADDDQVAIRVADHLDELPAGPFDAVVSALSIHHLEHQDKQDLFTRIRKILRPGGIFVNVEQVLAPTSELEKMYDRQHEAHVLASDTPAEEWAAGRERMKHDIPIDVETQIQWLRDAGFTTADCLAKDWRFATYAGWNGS

BhCysFE = biological target: T3, BhCysFE (Bradyrhizobium huanghuaihaiense, UniProt A0A562R406); assay: LC-MS
T3 construct: gene IQ16_06114; natural fusion (CysF-like aa 1-487, linker ATPVNMR, CysE-like aa 495-768), C-terminal His tag (pET28-a(+)), E. coli
T3 sequence (A0A562R406 1-768): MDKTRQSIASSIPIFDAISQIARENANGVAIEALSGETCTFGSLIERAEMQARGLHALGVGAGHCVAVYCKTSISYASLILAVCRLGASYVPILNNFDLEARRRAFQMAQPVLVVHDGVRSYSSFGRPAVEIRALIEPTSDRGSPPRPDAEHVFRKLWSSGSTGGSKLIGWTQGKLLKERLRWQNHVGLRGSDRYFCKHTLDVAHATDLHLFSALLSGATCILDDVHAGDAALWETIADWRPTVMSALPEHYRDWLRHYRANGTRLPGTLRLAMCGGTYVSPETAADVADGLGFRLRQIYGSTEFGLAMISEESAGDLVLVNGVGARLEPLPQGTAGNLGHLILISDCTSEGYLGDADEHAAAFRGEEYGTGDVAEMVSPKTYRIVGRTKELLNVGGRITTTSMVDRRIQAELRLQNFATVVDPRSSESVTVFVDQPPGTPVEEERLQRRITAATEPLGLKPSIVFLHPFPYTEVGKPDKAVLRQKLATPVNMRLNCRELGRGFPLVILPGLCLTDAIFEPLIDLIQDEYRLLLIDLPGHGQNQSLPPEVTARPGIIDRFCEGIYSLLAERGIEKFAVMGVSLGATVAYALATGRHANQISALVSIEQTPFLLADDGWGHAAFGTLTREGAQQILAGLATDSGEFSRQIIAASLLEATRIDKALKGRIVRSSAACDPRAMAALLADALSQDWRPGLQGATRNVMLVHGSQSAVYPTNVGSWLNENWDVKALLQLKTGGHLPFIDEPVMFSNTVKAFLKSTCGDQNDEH

CysF [2] = biological target: T1, CysF; assay: GC-MS and 1H NMR product analysis; conditions: ATP, MgCl2, phosphate pH 7.8, 25 °C; β-lactonization to 3a
BelH = biological target: T4, BelH (Streptomyces sp., UniProt A0A1W6R584); assay: LC-MS and GC-MS, cascade assay with BelI or BelR; conditions: ATP, MgCl2, phosphate pH 7.8, 25 °C; β-lactonization to 3b
T4 construct: N-terminal His tag (pET28-a(+)), E. coli BL21(DE3)
T4 sequence (A0A1W6R584 1-491): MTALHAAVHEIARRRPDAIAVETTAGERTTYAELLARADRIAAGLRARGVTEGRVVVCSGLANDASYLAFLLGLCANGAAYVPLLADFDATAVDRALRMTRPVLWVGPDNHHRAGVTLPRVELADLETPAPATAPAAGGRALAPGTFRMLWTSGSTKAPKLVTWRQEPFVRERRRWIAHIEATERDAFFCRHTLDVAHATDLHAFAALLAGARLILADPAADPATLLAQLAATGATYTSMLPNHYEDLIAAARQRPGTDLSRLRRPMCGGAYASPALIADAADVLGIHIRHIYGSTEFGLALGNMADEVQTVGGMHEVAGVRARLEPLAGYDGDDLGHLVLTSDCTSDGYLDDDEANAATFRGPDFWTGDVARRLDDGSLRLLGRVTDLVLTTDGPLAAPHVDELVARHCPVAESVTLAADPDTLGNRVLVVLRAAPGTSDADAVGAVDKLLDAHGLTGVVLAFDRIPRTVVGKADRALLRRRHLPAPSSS

CysE = biological target: T5, CysE (Kitasatospora cystarginea, UniProt A0A1W6R564); assay: LC-MS, tandem assay with CysF; conditions: 3a generated in situ from 2a by CysF and ATP; MgCl2, phosphate pH 7.8, 25 °C
T5 construct: C-terminal His tag (pET28-a(+)), E. coli BL21(DE3)
T5 sequence (A0A1W6R564 1-271): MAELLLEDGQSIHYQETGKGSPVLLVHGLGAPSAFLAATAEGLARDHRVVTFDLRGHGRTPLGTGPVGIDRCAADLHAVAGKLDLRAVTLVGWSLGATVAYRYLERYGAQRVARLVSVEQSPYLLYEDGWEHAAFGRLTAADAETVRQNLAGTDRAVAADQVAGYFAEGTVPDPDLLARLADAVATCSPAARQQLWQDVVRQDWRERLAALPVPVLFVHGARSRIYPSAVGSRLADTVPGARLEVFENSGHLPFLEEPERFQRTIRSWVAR

CC(C)[C@H](C(=O)O)[C@@H](O)C(=O)O [1a, malic acid 1a]
LC-MS, hydroxylamine trapping as hydroxamic acid 10 (CysF [1]): CysF can efficiently activate the C4-carboxyl of 1a
LC-MS and NMR product analysis (CysG; SAM, C1-carboxylate methylated): CysG exclusively produced the C1-methyl ester 2a from 1a and SAM

COC(=O)[C@H](O)[C@@H](C(=O)O)C(C)C [2a, C1-methyl ester 2a]
LC-MS (BhCysFE; ATP, lactonization and ester hydrolysis to 4a): incubated with 2a and ATP, leading to a quantitative production of 4a
GC-MS and 1H NMR product analysis (CysF [2]): 2a was again consumed in the CysF reaction with ATP

CCC(C)[C@H](C(=O)O)[C@@H](O)C(=O)OC (some centres unmarked) [2b]
LC-MS and GC-MS, cascade assay with BelI or BelR (BelH): GC-MS analysis of the CysGF and BelIH cascade confirmed the formation of 3a/b

COC(=O)[C@@H]1OC(=O)[C@H]1C(C)C [3a, β-lactone methyl ester 3a]
LC-MS, tandem assay with CysF (CysE): tandem reaction with CysF and CysE, including ATP, resulted in the β-lactone carboxylic acid 4a

C[S+](CC[C@H](N)C(=O)O)C[C@H]1O[C@@H](n2cnc3c(N)ncnc32)[C@H](O)[C@@H]1O (some centres unmarked) [S-adenosyl methionine]
LC-MS and NMR product analysis (CysG; co-substrate 1a): CysG exclusively produced the C1-methyl ester 2a from 1a and SAM

Nc1ncnc2c1ncn2[C@@H]1O[C@H](COP(=O)(O)OP(=O)(O)OP(=O)(O)O)[C@@H](O)[C@H]1O [adenosine triphosphate]
LC-MS (BhCysFE; co-substrate 2a): incubated with 2a and ATP, leading to a quantitative production of 4a
